From patent US12655107B2 (The United States of America, as represented by the …, priority 2018, dated 2026)
Where two headings read alike, the source gives them in different places.

How the values were obtained:
pBR322 DNA = assay: Top1-mediated unwinding assay; type: biochemical; conditions: supercoiled or relaxed pBR322 DNA, excess Top1, 19a up to 9 μM
Protocol: The binding of classical DNA intercalators between the base pair of circular DNA produce Top1-mediated unwinding effect, thereby antagonizing Top1-mediated DNA relaxation. […]. […] […]. The reaction mixture (20 μL) contained supercoiled or relaxed pBR322 DNA (0.5 μg), tested compounds and excess Top1 (10 units) in relaxing buffer (10 mM Tris, pH 7.5, 0.1 mM EDTA, 5 mM MgCl2, 50 mM KCl, 1 mM DTT, 15 μg/mL acetylated BSA). The DNA was incubated with the tested compounds at room temperature for 10 min prior to the addition of Top1. After being incubated for 30 min at 37° C., the reaction was terminated by the addition of […] loading buffer. The results were analyzed using 1% agarose gel in TAE buffer at 5 V/cm. The gel was stained with gel red and visualized with a UV transilluminator.

[1] = tested on: γH2AX foci in HCT116 cells; assay: γH2AX detection by immunofluorescence; type: cell-based, human; conditions: HCT116, 1 μM, 3 h
Protocol: To evaluate the DNA damaging effect of 50 in cancer cells, γH2AX foci were assessed by immunofluorescence microscopy in human […] HCT116 cells. After incubation with the compounds for 3 h, the HCT116 cells were stained with γH2AX antibodies.
HCT116 cells (2×10^4 cells/mL) were grown in culture medium and treated with compounds for 3 h at 37° C. […] Cells were permeabilized with 0.5% Triton X-100 in PBS at 0° C. for 30 min. Dish was blocked with 5% goat serum/PBS at 37° C. for 3 h. […] The dishes were again washed six times with blocking buffer. Digital images were recorded using an LSM710 microscope (Zeiss, Germany) and analyzed with ZEN software.

HCT116 cells = assay: Flow cytometry apoptosis assay; type: cell-based, human; conditions: HCT116, 24 h, 0.5, 1 and 2 μM
Protocol: To evaluate the induction of apoptosis by 50, flow cytometry assays were performed in HCT116 cells.
The stained cells were analyzed by using flow cytometry (BD, FACSCalibur, USA) within I h. The experiments were repeated three times independently.

[2] = Pharmacokinetic study in rat; conditions: SD rats, i.g. 5 mg/kg
Protocol: The SD rats were divided into two groups (n=3) and treated by intravenous injection (i.v.) at 1 mg/kg dose and intragastrical administration (i.g.) at 5 mg/kg dose, respectively.
A pharmacokinetic (PK) study in vivo of 50 was performed in Sprague-Dawley (SD) rats. The SD rats were randomly divided into two groups […] and treated by intravenous injection (iv) at 1 mg/kg dose or an intragastrical administration (ig) at 5 mg/kg dose, respectively. Plasma samples were collected postdosing and the concentration of 50 was measured.
Plasma samples (100 μL) were obtained after centrifugation for 10 min at 3000 rpm and stored at −20° C. until used for analysis. The plasma was detected through LC-MS-MS.

HCT116 xenograft = assay: In vivo antitumor activity, HCT116 xenograft; conditions: HCT116 xenograft
Top1 = molecular target: T1, Top1 (Homo sapiens, UniProt P11387); assay: Top1-mediated DNA cleavage assay; type: biochemical
T1 sequence (P11387 1-765): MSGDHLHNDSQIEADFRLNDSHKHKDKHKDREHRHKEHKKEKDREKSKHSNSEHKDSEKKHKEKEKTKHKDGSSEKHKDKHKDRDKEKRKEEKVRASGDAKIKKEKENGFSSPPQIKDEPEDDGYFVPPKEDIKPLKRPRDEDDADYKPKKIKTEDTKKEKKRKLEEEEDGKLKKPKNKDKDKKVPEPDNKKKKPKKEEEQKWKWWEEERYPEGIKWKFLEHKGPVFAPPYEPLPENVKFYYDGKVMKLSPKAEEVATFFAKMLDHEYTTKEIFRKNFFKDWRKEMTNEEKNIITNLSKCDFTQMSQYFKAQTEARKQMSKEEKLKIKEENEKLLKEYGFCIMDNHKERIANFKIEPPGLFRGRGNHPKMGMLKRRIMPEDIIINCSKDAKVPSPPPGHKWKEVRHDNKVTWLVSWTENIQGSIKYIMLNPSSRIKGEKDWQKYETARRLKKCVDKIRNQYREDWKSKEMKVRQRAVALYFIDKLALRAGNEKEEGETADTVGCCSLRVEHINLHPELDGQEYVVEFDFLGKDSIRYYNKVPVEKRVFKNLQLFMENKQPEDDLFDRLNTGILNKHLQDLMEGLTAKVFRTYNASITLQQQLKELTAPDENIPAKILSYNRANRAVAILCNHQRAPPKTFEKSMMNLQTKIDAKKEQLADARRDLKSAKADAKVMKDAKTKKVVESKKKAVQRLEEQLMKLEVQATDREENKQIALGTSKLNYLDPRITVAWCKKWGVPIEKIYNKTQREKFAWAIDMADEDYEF

CCRF-CEM = assay: MTT cytotoxicity assay, CCRF-CEM; type: cell-based, human; conditions: 72 h, Table 1b
Protocol: (§1) Cytotoxicity Assays. […] The cells were incubated with the tested compounds for 72 hours in a five-dose assay ranging from 0.01 to 100 μM concentration. After drug treatments, MTT solution was added to test the percentage growth of tumor cells.
(§2) For the drug treatment experiments, the cancer cells were treated with the compounds (predissolved in DMSO) at a five-dose assay ranging from 0.01 to 100 μM concentration. […] After 4 h incubation, the formazan crystal formed in the well was dissolved with […] of DMSO for optical density reading at 570 nm. The GI50 value was calculated by nonlinear regression analysis (GraphPad Prism).

A549 = assay: MTT cytotoxicity assay, A549; type: cell-based, human
Protocol: as §1
(§3) The compounds were incubated with the cells for 72 hours in a five-dose assay ranging from 0.01 to 100 μM concentration. At the end of the incubation, the MTT solution was added to test the percentage growth of tumor cells.
as §2

Huh7 = assay: MTT cytotoxicity assay, Huh7; type: cell-based, human; conditions: Table 1b
Protocol: as §1, §2

MCF-7 = assay: MTT cytotoxicity assay, MCF-7; type: cell-based, human; conditions: Homo sapiens, MCF7, 72 h, Table 7, read-out: GI50 ± SC (μM) MCF-7
Protocol: as §3, §2

[3] = molecular target: T2, Top1-DNA covalent cleavage complexes in HCT116 cells (Homo sapiens, UniProt P11387); assay: Immunocomplex of enzyme to DNA (ICE) assay; type: cell-based; conditions: HCT116, 25, 50 and 100 μM
T2 construct: endogenous in cells; host or cells: HCT116 (human colon cancer)

Tdp1 = Tdp1 (Homo sapiens, UniProt Q9NUW8); assay: Tdp1 inhibition fluorescence assay; type: biochemical; conditions: compounds at 100 μM
Chain of Tdp1 (Q9NUW8 whole entry): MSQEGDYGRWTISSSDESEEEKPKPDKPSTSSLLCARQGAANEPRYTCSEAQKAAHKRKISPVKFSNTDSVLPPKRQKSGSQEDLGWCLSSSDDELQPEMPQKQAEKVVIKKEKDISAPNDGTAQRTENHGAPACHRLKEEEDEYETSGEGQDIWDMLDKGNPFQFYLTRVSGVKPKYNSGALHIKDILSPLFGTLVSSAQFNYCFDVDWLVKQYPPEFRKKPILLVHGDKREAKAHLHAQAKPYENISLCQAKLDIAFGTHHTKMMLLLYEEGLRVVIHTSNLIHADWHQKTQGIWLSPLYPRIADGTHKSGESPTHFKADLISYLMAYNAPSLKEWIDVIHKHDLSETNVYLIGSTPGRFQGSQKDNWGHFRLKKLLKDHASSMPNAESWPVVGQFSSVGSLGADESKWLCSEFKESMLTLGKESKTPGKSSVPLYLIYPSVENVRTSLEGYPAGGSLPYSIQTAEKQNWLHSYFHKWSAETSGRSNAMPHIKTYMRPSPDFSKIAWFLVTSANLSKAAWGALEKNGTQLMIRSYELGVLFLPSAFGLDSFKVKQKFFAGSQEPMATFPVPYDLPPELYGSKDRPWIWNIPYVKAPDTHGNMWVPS
Protocol: Tdp Inhibition. […] The compounds were tested at 100 μM concentration. […] Fluorescence assay. […] Tdp1 solution (20 μL/well, 0.02 μL purified Tdp1 (100 nM) in 10 mM Tris-HCl, pH 7.5, 50 mM KCL, I mM EDTA, 1 mM DTT) was dispensed into wells of a white 384-well plate (NEST). The tested compound solution in DMSO (5 μL) was pinned into assay plates and incubated at room temperature for 30 min. […] Tdp percentage inhibition of the tested compounds was calculated by comparing the rate of increase in fluorescence throughout time for the compound-treated wells to that of DMSO control wells.

F10T dsDNA = assay: FRET melting assay; type: binding; conditions: compounds at 2 μM
Protocol: It was reported that nitidine can intercalate into double-stranded DNA (dsDNA) and inhibit Top1. […] The DNA intercalator 49 was used as positive control.
FRET melting assay was carried out on a real-time PCR apparatus as the following methods. […] In the experiment, the annealed oligonucleotide (final concentration of 0.4 μM) were incubated with the tested compounds (2 μM) in a total reaction volume of Tris-HCl buffer (10 mM, pH 7.4) containing 60 mM KCl at 37° C. for 0.5 h. Fluorescence melting curves were determined with a Roche LightCycler 2 real-time PCR machine with excitation at 470 nm and detection at 530 nm.

HCT116 = assay: MTT cytotoxicity assay, HCT116; type: cell-based, human; conditions: 72 h, Table 1b, read-out: GI50 (μM) HCT116
Protocol: as §1, §3, §2

DU145 = assay: MTT cytotoxicity assay, DU145; type: cell-based, human; conditions: 72 h, Table 1b, read-out: GI50 (μM) DU145
Protocol: as §1, §3, §2

[4] = semi-quantitative score relative to CPT (1) at 1 μM, tested at 0.1-100 μM
[5] = 72 h, Table 1b, read-out: GI50 (μM) A549

SMILES: COc1cc2c(=O)n(CCN(C)C)c3c4cc5c(cc4ccc3c2cc1OC)OCO5 [Compound 19a, 12-(2-(Dimethylamino)ethyl)-2,3-dimethoxy-[1,3]dioxolo[4′,5′:4,5]benzo[1,2-c]phenanthridin-13(12H)-one]
- Top1-mediated unwinding effect (pBR322 DNA): no Top1-mediated unwinding effect
- γH2AX foci [1]: γH2AX foci were induced
- induction of apoptosis (HCT116 cells): significantly induce HCT116 cells apoptosis in a dose-dependent manner
- Tmax [2]: 1.17 ± 0.76 h
- body weight (HCT116 xenograft; 5 mg/kg i.p. daily): no obvious body loss
- body weight (HCT116 xenograft; 10 mg/kg i.p. daily): Body weight loss was found
- tumor volume (HCT116 xenograft; i.p. once every day): significantly reduced tumor volume in a dose-dependent manner

SMILES: CC[C@@]1(O)C(=O)OCc2c1cc1n(c2=O)Cc2cc3ccccc3nc2-1 [Compound 1, camptothecin, reference compound]
- TOP1 inhibition (Top1; graded relative to CPT at 1 μM, Table 7): ++++
- TOP1 inhibition (Top1; [4]): ++++ (++++, equal activity)
- GI50 (CCRF-CEM; Homo sapiens, CCRF-CEM): 0.007 ± 0.003 µM
- GI50 (A549; Homo sapiens, A549, 72 h, Table 7, read-out: GI50 ± SC (μM) A-49): 0.099 ± 0.017 µM
- GI50 (Huh7; Homo sapiens, Huh-7, 72 h): 0.099 ± 0.017 µM
- GI50 (MCF-7): 0.012 ± 0.002 µM
- induction of cellular Top1cc [3]: induced the formation of cellular TOP1 cc in a dose-dependent manner

SMILES: COc1cc2c(cc1OC)-c1ccc3cc4c(cc3c1N(CCN(C)C)C2)OCO4 [Compound 26a, 2-(2,3-Dimethoxy-[1,3]dioxolo[4′,5′:4,5]benzo[1,2-c]phenanthridin-12(131)-yl)-N,N-dimethylethan-1-amine]
- TOP1 inhibition (Top1; [4]): + (+, between 20% and 50% activity)
- TDP1 inhibition (Tdp1): 0%
- ΔTm (°C.) F10T (F10T dsDNA): 1.0 °C
- GI50 (HCT116): 7.36 ± 3.55 µM
- GI50 (CCRF-CEM): 0.95 ± 0.14 µM
- GI50 (μM) CCRF-CEM (CCRF-CEM): submicromolar concentration
- GI50 (DU145): 1.93 ± 0.41 µM
- GI50 (A549; [5]): 6.68 ± 1.93 µM
- GI50 (Huh7; 72 h): 7.78 ± 2.91 µM

SMILES: COc1cc2c(=O)n(C)c3c4cc5c(cc4ccc3c2cc1OC)OCO5 [Compound 6, oxynitidine, reference compound]
- GI50 (HCT116): 74.8 ± 4.36 µM
- GI50 (CCRF-CEM): 26.5 ± 5.41 µM
- GI50 (DU145): 64.2 ± 10.9 µM
- GI50 (A549; [5]): 39.4 ± 26.2 µM
- GI50 (Huh7; 72 h): > 100 µM
